Laboratory results published in US20190337971A1, “PANTETHEINE DERIVATIVES FOR THE TREATMENT OF NEUROLOGIC DISORDERS” (Retrophin, Inc., priority 2016, published 2019).

Assays:
[1] = Stability in human plasma; assay type: in vitro ADME; details: 37° C., up to 60 min
Procedure: The stability of selected compounds in human plasma was evaluated according to the following protocol. Compounds and positive control samples were dissolved in 100% DMSO at 3 mM. To investigate the stability of the test compounds in plasma, samples were made by diluting test compounds into plasma from the stock solutions to obtain a test compound concentration of 3 μM (0.1% DMSO). Before addition of a test compound, 990 μl of plasma were preincubated at 37° C. for 5 min in eppendorf. After addition of a test compound, 70 μl for each time point were transferred to a 96-deepwell plate, previously warmed at 37° C. in a DUBNOFF water bath. Each compound was tested at five time points, in duplicate (10, 20, 30, 40 and 60 min). At each time point, an aliquot of 50 μl was taken and transferred to a new 96-deepwell plate, and the reaction was stopped with 200 μl of 100% acetonitrile containing 0.1% formic acid and the appropriate internal standard. Then samples were centrifuged at 1100×g for 30 min at +4° C. and supernatants were transferred to a new 96-deepwell plate. Samples were evaporated under N2 and reconstituted in H2O/ACN 0.1% formic Acid (98:2). Analysis was performed without a calibration curve (Acquity UPLC-Waters; SciexAPI4000). Time 0 was obtained by adding acetonitrile before addition of the test compound.
(§1) Stability was determined based on analysis of disappearance of the compounds as a function of incubation time. Quantification of test compounds was measured as a peak area relative to an internal standard. The elimination constant k and half-life (t1/2) were determined as described above in Example 7.

[2] = Stability of compounds in human hepatocytes; assay type: in vitro ADME; details: cryopreserved human hepatocytes in suspension, 37° C., 0-240 min
Procedure: (§2) Stability in hepatocytes for select compounds disclosed in the application was evaluated in two species (mouse and human) according to the following procedure. Compounds and positive control samples were dissolved in 100% DMSO at 5 mM. Cryopreserved hepatocytes were thawed and resuspended in Hepatocyte Basal Medium (HBM-Lonza CC-3199) supplemented with CC-4182 (complete hepatocyte culture medium). Test compounds were diluted into cell suspension (1 million cells/ml) from the stock solutions to have a test compound concentration of 5 μM (0.1% DMSO). Incubation was performed in 24-well plates, at 37° C. in a DUBNOFF water bath, under low shaking. Each compound was tested at 6 time points, in duplicates (0, 15, 30, 60, 120, and 240 min). At each time point, an aliquot of 120 μl was taken and transferred to a 96-well deep plate. The reaction was stopped with the addition of one volume of 100% acetonitrile plus 0.1% formic acid and the appropriate internal standard. Samples then were centrifuged at 1100×g for 30 min at +4° C. and supernatants were transferred to a new 96-deepwell plate. Samples were evaporated under N2 and reconstituted in H2O/ACN 0.1% formic Acid (98:2). Analysis was performed without a calibration curve (Acquity UPLC-Waters; Sciex API4000). Time 0 was obtained adding acetonitrile before addition of the test compound. Stability was determined based on analysis of disappearance of the compounds as a function of incubation time. Quantification of test compounds was measured as a peak area relative to an internal standard. The elimination constant, k, is calculated by plotting mean disappearance values on a semi-logarithmic scale and fitting with a best fit linear regression. The half-life (t1/2) expressed in hours was derived using Equation 1:
(§3) t1/2=ln 2/(−k). Equation 1: […]

[3] = Stability of compounds in mouse hepatocytes; assay type: in vitro ADME; details: cryopreserved mouse hepatocytes in suspension, 37° C., 0-240 min
Procedure: as §2, §3

[4] = tested on: PANK2−/− IMR32 cells; test: Coenzyme A assay in PANK2 silenced cells (LC-MS quantification of free CoA); assay type: cell-based, human; details: Homo sapiens, IMR-32; compound concentration 50 uM; fold increase in CoA levels relative to controls; treated twice, 24 h + 24 h
Procedure: A human neuroblastoma IMR32 cell line (ATCC) with stably PANK2 silencing was obtained by lentiviral-delivered small hairpin RNA and cultured in MEM (Invitrogen) supplemented with 10% fetal bovine serum, 2 mM glutamine, 1% penicillin-streptomycin, 1 mM sodium pyruvate, 1 mM non-essential amino acids, and 1.5 g/l sodium bicarbonate.
A non-silencing shRNA construct (scrambled shRNA) and an empty vector expressing GFP alone were used as negative controls. The GFP tag subcloned into the lentiviral vectors was used to monitor the transfection efficiency.
Three days after transduction medium was removed and replaced with fresh medium containing […] puromycin. […] The level of PANK2 expression in selected clones was assessed by Western Blot analysis.
To quantify CoA, PANK2−/− IMR32 cells were plated on 12-well culture plates (Corning) at a density of 0.2×10^6 cells per well. […] Controls with medium containing 0.1% DMSO without test compounds were also included in each plate. […] Before LC-MS analysis of CoA levels, cells were harvested, counted, and collected in a 15 ml falcon tube and centrifuged at 200×g for 5 min at 4° C. Supernatant was removed and cell pellet was washed in 10 ml of ice-cold PBS. To further confirm that the numbers of cells in each sample were equivalent, an equal fraction of pellet was collected from each sample and subjected to protein determination analysis. After centrifugation and supernatant removal, the cell pellet was rapidly frozen in Liquid Nitrogen and stored at −80° C. until analysis.
Intracellular CoA levels were calculated considering an intracellular volume of 1 million cells=2 μl.
The 1*10^6 cellular pellet was extracted with 120 μl of aqueous 20% TFA.
100 μL samples of supernatant were dried under N2 at 20° C. in the dark.
Samples were re-dissolved in 100 μl of 10 mM NH4^+ AcO^− buffer pH 5.1+IS (Dextrorphan 50 ng/ml), stirred for 2 min, sonicated in ultrasonic bath for 1 min, then stirred again for 1 min, and injected into LC-MS.
LC-MS/MS was performed using an Agilent HPLC (1100 Series, USA). The LC system was interfaced with an API-4000 Q-Trap triple quadrupole mass spectrometer (AB Sciex, Toronto, Canada) equipped with a TurboIonSpray ionization source operating in positive ion mode. Analyst™ software version 1.6 (AB Sciex, Toronto, Canada) was used for data acquisition and processing. CoA was separated using a Luna C18 column (2.0×50 mm; 5 μm particle size), column at 25° C. and flow rate of 0.2 ml/min. Injection volume was 15 μl. The mobile phases consisted of water containing 10 mM ammonium acetate pH 7 (mobile phase A) and MeCN-2-propanol 9:1 (mobile phase B).
Results are expressed as fold increase in CoA levels relative to controls (using LC-MS quantification of free CoA).

[5] = Stability in human whole blood; assay type: in vitro ADME; details: 37° C., up to 60 min
Procedure: The stability of selected compounds in human whole blood was evaluated according to the following protocol. Compounds and positive control samples were dissolved in 100% DMSO at 3 mM (stock solution). To investigate the stability of the test compounds in whole blood, a 200 μM working solution (WS) in water has been prepared by adding 66.66 μl of each 3 mM stock solution to 933.34 μl of water (6.66% DMSO content). After pre-incubation of the whole blood at 37° C. for 5 min in an eppendorf, 10.5 μl of each working solution were spiked into 689.5 μl of heated blood. The obtained 3 μM solution in blood (0.1% DMSO content) was quickly stirred and 100 μl for each time point were transferred to an eppendorf. Each compound was tested in duplicate at five time points (10, 20, 30, 40 and 60 min). At each time point, the reaction was stopped by quenching the spiked blood (100 μl) with 400 μl of 100% acetonitrile containing 0.1% formic acid. Then samples were centrifuged at 15600 rpm for 15 min at +4° C. and 200 μl of supernatant were transferred to a 96-deepwell plate. Samples were evaporated under N2 and reconstituted in H2O/ACN 0.1% formic Acid (98/2 v/v) containing the appropriate internal standard. Analysis was performed without a calibration curve by using an Acquity-UPLC (Waters) coupled to a triple quadrupole mass spectrometer (SciexAPI4000). Time point 0 was obtained by adding 3 μL of each 200 μM working solution to 997 μL of the supernatant obtaining after centrifugation (15600 rpm for 15 min at +4° C.) of the blank matrix quenched with acetonitrile containing 0.1% formic acid.
as §1

[6] = Diastereoisomer A (upfield shift in 31P NMR), read-out: t1/2 (h) Human Plasma Diastereoisomer A (converted)
[7] = Diastereoisomer A (upfield shift in 31P NMR), read-out: t1/2 (h) Human Hepatocytes Diastereoisomer A (converted)
[8] = Diastereoisomer A (upfield shift in 31P NMR), read-out: t1/2 (h) Mouse Hepatocytes Diastereoisomer A (converted)
[9] = Diastereoisomer A (upfield shift in 31P NMR), read-out: t1/2 (h) Human Whole Blood Diastereoisomer A (converted)

half-life at 3 μM [1, 6] [h]	half-life at 5 μM [2, 7] [h]	half-life at 5 μM [3, 8] [h]	half-life at 5 μM ([2]; Diastereoisomer B, read-out: t1/2 (h) Human Hepatocytes Diastereoisomer B (converted)) [h]	half-life at 5 μM ([3]; Diastereoisomer B, read-out: t1/2 (h) Mouse Hepatocytes Diastereoisomer B) [h]	half-life at 3 μM [5, 9] [h]	half-life at 3 μM ([5]; Diastereoisomer B, read-out: t1/2 (h) Human Whole Blood Diastereoisomer B (converted)) [h]	half-life at 3 μM ([1]; Diastereoisomer B, read-out: t1/2 (h) Human Plasma Diastereoisomer B (converted)) [h]	Compound	fold induction at 50 µM [4]
0.72	< 0.25	< 0.25						CC(=O)SCCNC(=O)CCNC(=O)[C@@H]1O[P@@](=O)(OCOC(=O)C(C)(C)C)OCC1(C)C [R1002, (((2S,4R)-4-((3-((2-(acetylthio)ethyl)amino)-3-oxopropyl)carbamoyl)-5,5-dimethyl-2-oxido-1,3,2-dioxaphosphinan-2-yl)oxy)methyl pivalate]	
	0.29	< 0.25	< 0.25	< 0.25	0.5	0.23		CC(=O)SCCNC(=O)CCNC(=O)[C@@H]1OP(=O)(OCOC(=O)NCCOC(=O)C(C)(C)C)OCC1(C)C (stereo partly drawn) [R1008, 2-((((((4R)-4-((3-((2-(acetylthio)ethyl)amino)-3-oxopropyl)carbamoyl)-5,5-dimethyl-2-oxido-1,3,2-dioxaphosphinan-2-yl)oxy)methoxy)carbonyl)amino)ethyl pivalate]	41.2
> 1							0.36	CC(=O)SCCNC(=O)CCNC(=O)[C@@H]1OP(=O)(N[C@@H](C)C(=O)OCCc2ccccc2)OCC1(C)C (stereo partly drawn) [R1001, phenethyl ((4R)-4-((3-((2-(acetylthio)ethyl)amino)-3-oxopropyl)carbamoyl)-5,5-dimethyl-2-oxido-1,3,2-dioxaphosphinan-2-yl)-L-alaninate]	3.5
					0.32			CC(=O)SCCNC(=O)CCNC(=O)[C@@H]1OP(=O)(OCOC(=O)NCCSC(=O)[C@@H](N)C(C)C)OCC1(C)C (stereo partly drawn) [R1021, S-(2-((((((4R)-4-((3-((2-(acetylthio)ethyl)amino)-3-oxopropyl)carbamoyl)-5,5-dimethyl-2-oxido-1,3,2-dioxaphosphinan-2-yl)oxy)methoxy)carbonyl)amino)ethyl) (2S)-2-amino-3-methylbutanethioate]	3.7
